Data set [1] has as its system HBV. The experiment in a line: HBV DNA Quantification Assay. In kind it is cell-based. The gist of the method: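 NTCP-overexpressing HepG2 cells were infected with AD38 virus at 4000 genome equivalents/cell for 4 days, then reseeded with serially diluted compound in 2% FBS/1% DMSO medium for 5 days. Supernatant HBV DNA was measured by QuantiGene 2.0 branched-DNA luminescence. EC50 came from four-parameter fits, as geometric means of ≥4 determinations.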

A short description of data set [2]: Kinetic Solubility. In kind it is physicochemical. The note with it: 0.2 to 100 μM, BD Gentest Solubility Scanner. The protocol:
The 10 mM DMSO stock solution of the test compound is serially diluted into a 96-well “DMSO stock dilution plate”. Then Pipette 2 μL from the DMSO stock dilution plate into the “Sample plate” and dilute with 198 µL of the assay media to generate the final concentrations of the test compound ranging from 0.2 to 100 μM. The “Sample plate” is run on a BD Gentest Solubility Scanner.

[3] abbreviates: Hepatitis B virus, 120 h, HepG2 cell line overexpressing NTCP infected with HBV AD38 viral particles, HBV DNA in culture supernatant after 5 days, geometric mean of a minimum of four determinations, read-out: EC50.
The mark [4] stands for this setting: aqueous buffer, kinetic from dmso stock, pH = 7, read-out: Kinetic Solubility at pH = 7.
Where [5] appears, read: simulated gastric fluid, kinetic from dmso stock, pH = 1, read-out: Kinetic Solubility at pH = 1.
The mark [6] stands for this setting: Hepatitis B virus, HepG2, 120 h.
[7] abbreviates: assay media at pH 1 (composition not named), simulated gastric fluid, kinetic from dmso stock, pH = 1, read-out: Kinetic Solubility at pH = 1.
Where [8] appears, read: assay media at pH 7 (composition not named), aqueous buffer, kinetic from dmso stock, pH = 7, read-out: Kinetic Solubility at pH = 7.

Converted amounts (≈) assume the structure as drawn. Where two headings read alike, the source gives them in different places.

What is called EC50 is the midpoint of the concentration-response curve. By kinetic solubility is commonly meant solubility judged after dilution from a stock solution rather than from solid.

In the case of `CNC(=O)C1(NC(=O)C(=O)c2c(C)c(C(=O)Nc3cc(F)c(F)c(F)c3)c3n2CCC3)CC(F)(F)C1` [Example 42, 5-(2-((3,3-difluoro-1-(methylcarbamoyl)cyclobutyl)amino)-2-oxoacetyl)-6-methyl-N-(3,4,5-trifluorophenyl)-2,3-dihydro-1H-pyrrolizine-7-carboxamide], the EC50 in data set [1] (setting [3]) was 12.7 nM. Besides, the kinetic solubility in data set [2] (setting [4]) was 29.6 µM (≈ 15.2 µg/mL); in data set [2] (setting [5]), 37.5 µM (≈ 19.2 µg/mL).

Consider `Cc1c(C(=O)Nc2ccc(F)cc2)c2n(c1C(=O)C(=O)NC1(c3cnn(C)n3)CC(F)(F)C1)CCC2` [Example 9, 5-(2-((3,3-difluoro-14(2-methyl-2H-1,2,3-triazol-4-yl)cyclobutyl)amino)-2-oxoacetyl)-N-4(4-fluorophenyl)-6-methyl-2,3-dihydro-1H-pyrrolizine-7-carboxamide], for which the EC50 in data set [1] (HepG2 cell line overexpressing NTCP infected with HBV AD38 viral particles, HBV DNA in culture supernatant after 5 days, geometric mean of a minimum of four determinations, read-out: EC50) amounted to 5.8 nM. For the same compound, the solubility (kinetic) in data set [2] (pH = 1, read-out: Kinetic Solubility at pH = 1) is recorded as 2.8 µM (≈ 1.4 µg/mL); in data set [2] (pH = 7, read-out: Kinetic Solubility at pH = 7) it was 2.3 µM (≈ 1.15 µg/mL).

For `CNC(=O)C1(NC(=O)C(=O)c2c(C)c(C(=O)Nc3ccc(F)cc3)c3n2CCC3)CC(F)(F)C1` [Example 45, 5-(2-((3,3-difluoro-1-(methylcarbamoyl)cyclobutyl)amino)-2-oxoacetyl)-N-(4-fluorophenyl)-6-methyl-2,3-dihydro-1H-pyrrolizine-7-carboxamide], the EC50 in data set [1] (setting [3]) was 55.9 nM. Also, the kinetic solubility in data set [2] (setting [4]) was 95.3 µM (≈ 45.4 µg/mL); in data set [2] (setting [5]), 99.9 µM (≈ 47.6 µg/mL).

`Cc1c(C(=O)Nc2ccc(F)c(F)c2)c2n(c1C(=O)C(=O)NC1(c3c[nH]nn3)CC(F)(F)C1)CCC2` [Example 39]: the EC50 in data set [1] (setting [3]) is 2.9 nM. Also, the values for the solubility (kinetic) in data set [2] (setting [4]) and in data set [2] (setting [5]) were 66.8 µM (≈ 33.7 µg/mL) and 66 µM (≈ 33.3 µg/mL), respectively.

For `Cc1c(C(=O)Nc2ccc(F)c(F)c2)c2n(c1C(=O)C(=O)NC1(C(N)=O)CC(F)(F)C1)CCC2` [Example 44, 5-(2-((1-carbamoyl-3,3-difluorocyclobutyl)amino)-2-oxoacetyl)-N-(3,4-difluorophenyl)-6-methyl-2,3-dihydro-1H-pyrrolizine-7-carboxamide], the 50% effective concentration (EC50) in data set [1] (setting [3]) was found to be 15.2 nM. Moreover, the values for the solubility (kinetic) in data set [2] (setting [4]) and in data set [2] (setting [5]) were 49.8 µM (≈ 23.9 µg/mL) and 90.3 µM (≈ 43.4 µg/mL), respectively.

As to `Cc1c(C(=O)Nc2ccc(F)c(F)c2)c2n(c1C(=O)C(=O)NC1(c3cnn[nH]3)CC(F)(F)C1)C[C@@H]1C[C@H]21` [Example 21], the EC50 in data set [1] (setting [3]) was found to be 3.9 nM. In addition, the kinetic solubility in data set [2] (setting [4]) was 57.6 µM (≈ 29.7 µg/mL); in data set [2] (setting [5]) it was 64.7 µM (≈ 33.4 µg/mL).

On to `Cc1c(C(=O)Nc2ccc(F)cc2)c2n(c1C(=O)C(=O)NC1(c3nncs3)CC(F)(F)C1)CCC2` [Example 8], for which the EC50 in data set [1] (setting [3]) is 4.7 nM. Also, the kinetic solubility in data set [2] (setting [4]) was 3.9 µM (≈ 1.96 µg/mL); in data set [2] (setting [5]), 10.5 µM (≈ 5.29 µg/mL).

For the compound `CNC(=O)C1(NC(=O)C(=O)c2c(C)c(C(=O)Nc3ccc(F)c(C#N)c3)c3n2CCC3)CC(F)(F)C1` [Example 28, N-(3-cyano-4-fluorophenyl)-5-(2-((3,3-difluoro-1-(methylcarbamoyl)cyclobutyl)amino)-2-oxoacetyl)-6-methyl-2,3-dihydro-1H-pyrrolizine-7-carboxamide], in data set [1] (setting [3]), the EC50 was determined as 294 nM. In addition, the figures for the kinetic solubility in data set [2] (setting [4]) and in data set [2] (setting [5]) were 25.3 µM (≈ 12.7 µg/mL) and 55.7 µM (≈ 27.9 µg/mL), respectively.

In data set [1] (setting [6]), `Cc1c(C(=O)Nc2ccc(F)c(F)c2)c2n(c1C(=O)C(=O)NC1(c3cn(C)nn3)CC1)CCC2` [Example 11] returned an EC50 of 71.2 nM. Moreover, the figures for the solubility (kinetic) in data set [2] (setting [7]) and in data set [2] (setting [8]) were 48.9 µM (≈ 22.9 µg/mL) and 56.3 µM (≈ 26.4 µg/mL), respectively.

In data set [1] (setting [6]), `C#CC1(NC(=O)C(=O)c2c(C)c(C(=O)Nc3ccc(F)c(F)c3)c3n2CCC3)CC1` [Example 13] displayed an EC50 of 8.5 nM. In addition, the kinetic solubility was 5 µM (≈ 2.06 µg/mL) in data set [2] (setting [7]) and 6.4 µM (≈ 2.63 µg/mL) in data set [2] (setting [8]).
